Results on three molecules are retold here after patent US20200317639A1, “POLYMORPHS OF N-[(2,6-DIFLUORO-3-METHOXYPHENYL)METHYL]-3-(METHOXYMETHYL)-1-({4-[(2-OXOPYRIDIN-1YL)METHYL]PHENYL}METHYL)PYRAZOLE-4-CARBOXAMIDE” (KALVISTA PHARMACEUTICALS LIMITED, priority 2016, published 2020).

For one data set, the target named is T1, Human KLK1 (Homo sapiens, UniProt P06870).
T1 construct: purchased Callbiochem
Briefly: Determination of the IC50 for KLK1. The conditions noted are these: 25° C., substrate H-DVaI-Leu-Arg-AFC. The class given is biochemical. On the procedure: Determination of the IC50 for KLK1
(§1) KLK1 inhibitory activity in vitro was determined using standard published methods (see e.g. Johansen et al., Int. J. Tiss. Reac. 1986, 8, 185; Shori et al., Biochem. Pharmacol., 1992, 43, 1209; Stürzebecher et al., Biol. Chem. Hoppe-Seyler, 1992, 373, 1025). Human KLK1 (Callbiochem) was incubated at 25° C. with the fluorogenic substrate H-DVaI-Leu-Arg-AFC and various concentrations of the test compound. Residual enzyme activity (initial rate of reaction) was determined by measuring the change in […] at 410 nm and the IC50 value for the test compound was determined.

The target in the next data set is T2, Human FXIa (Homo sapiens, UniProt P03951).
T2 construct: purchased Enzyme Research Laboratories
T2 sequence (P03951 388-625 limits assumed): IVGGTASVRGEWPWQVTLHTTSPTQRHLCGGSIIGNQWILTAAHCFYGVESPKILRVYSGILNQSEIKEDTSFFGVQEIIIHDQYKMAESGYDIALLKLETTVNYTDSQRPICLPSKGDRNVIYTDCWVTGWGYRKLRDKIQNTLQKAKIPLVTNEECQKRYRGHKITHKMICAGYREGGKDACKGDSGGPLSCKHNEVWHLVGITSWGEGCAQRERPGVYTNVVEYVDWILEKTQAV
T2 sequence (P03951 19-387 partner limits assumed): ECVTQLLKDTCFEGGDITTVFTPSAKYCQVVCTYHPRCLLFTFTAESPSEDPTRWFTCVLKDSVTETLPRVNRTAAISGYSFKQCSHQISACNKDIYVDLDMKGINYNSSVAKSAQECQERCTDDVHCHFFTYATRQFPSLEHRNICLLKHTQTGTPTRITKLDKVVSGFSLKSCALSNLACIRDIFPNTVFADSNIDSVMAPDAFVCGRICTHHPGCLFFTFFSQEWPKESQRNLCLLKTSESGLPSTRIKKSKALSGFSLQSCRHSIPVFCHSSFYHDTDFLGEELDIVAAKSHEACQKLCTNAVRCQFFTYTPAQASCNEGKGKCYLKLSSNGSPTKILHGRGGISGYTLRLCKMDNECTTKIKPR
As to the kind of experiment: Determination of the % inhibition for FXIa. It is filed as biochemical. Conditions: 40 μM test compound, 25° C. On the procedure: Determination of the % Inhibition for FXIa
FXIa inhibitory activity in vitro was determined using standard published methods (see e.g. Johansen et al., Int. J. Tiss. Reac. 1986, 8, 185; Shori et al., Biochem. Pharmacol., 1992, 43, 1209; Stürzebecher et al., Biol. Chem. Hoppe-Seyler, 1992, 373, 1025). Human FXIa (Enzyme Research Laboratories) was incubated at 25° C. with the fluorogenic substrate Z-Gly-Pro-Arg-AFC and 40 μM of the test compound. Residual enzyme activity (initial rate of reaction) was determined by measuring the change in optical absorbance at 410 nm.

The target in the next data set is T3, Human plasma kallikrein (Homo sapiens, UniProt P03952).
T3 construct: purchased Protogen
T3 sequence (P03952 391-638 limits assumed): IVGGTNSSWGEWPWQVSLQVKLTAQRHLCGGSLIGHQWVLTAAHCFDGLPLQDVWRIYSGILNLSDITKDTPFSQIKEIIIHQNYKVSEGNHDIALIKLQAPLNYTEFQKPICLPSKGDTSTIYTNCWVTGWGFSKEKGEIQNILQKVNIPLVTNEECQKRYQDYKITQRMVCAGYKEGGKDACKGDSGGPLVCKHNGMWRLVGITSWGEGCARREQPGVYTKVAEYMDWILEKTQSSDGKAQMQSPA
T3 sequence (P03952 20-390 partner limits assumed): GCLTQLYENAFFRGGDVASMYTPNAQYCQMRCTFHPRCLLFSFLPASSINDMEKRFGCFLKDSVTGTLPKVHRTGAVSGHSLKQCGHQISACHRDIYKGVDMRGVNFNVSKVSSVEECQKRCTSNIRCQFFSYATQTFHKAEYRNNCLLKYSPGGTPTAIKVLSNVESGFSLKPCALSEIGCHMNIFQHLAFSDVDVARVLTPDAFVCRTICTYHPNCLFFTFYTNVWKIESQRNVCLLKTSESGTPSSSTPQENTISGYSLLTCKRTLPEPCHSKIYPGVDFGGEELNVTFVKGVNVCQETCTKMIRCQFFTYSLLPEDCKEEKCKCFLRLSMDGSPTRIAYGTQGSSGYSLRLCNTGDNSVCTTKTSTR
Briefly: Determination of the IC50 for plasma kallikrein. It is filed as biochemical. Conditions: 25° C., substrate H-DPro-Phe-Arg-AFC; read-out: IC50 (human PKaI). On the procedure:
Determination of the IC50 for Plasma Kallikrein
as §1, with “Plasma kallikrein” for “KLK1”, “plasma kallikrein (Protogen)” for “KLK1 (Callbiochem)”, “H-DPro-Phe-Arg-AFC” for “H-DVaI-Leu-Arg-AFC”

A short description of data set [1]: Pharmacokinetic study, single oral dose in rats. The class given is in vivo. Conditions: male, Sprague-Dawley; rat, po 11.3 mg/kg, vehicle 10% DMSO/10% cremophor/80% SWFI, plasma. On the procedure:
A pharmacokinetic study of N-[(2,6-difluoro-3-methoxyphenyl)methyl]-3-(methoxymethyl)-1-({4-[(2-oxopyridin-1-yl)methyl]phenyl}methyl)pyrazole-4-carboxamide was performed to assess the pharmacokinetics following a single oral dose in male Sprague-Dawley rats. Two rats were given a single po dose of 5 mL/kg of a nominal 2 mg/mL (10 mg/kg) composition of test compound in vehicle. Following dosing, blood samples were collected over a period of 24 hours. Sample times were 5, 15 and 30 minutes then 1, 2, 4, 6, 8 and 12 hours. Following collection, blood samples were centrifuged and the plasma fraction analysed for concentration of test compound by LCMS.

Data set [2] has as its system LPS-induced disseminated intravascular coagulation. Conditions: cited from earlier work.
The test system of data set [3] is intrinsic pathway of coagulation. Conditions: in vitro; cited from earlier work.
The conditions of data set [4]: in vivo; cited from earlier work.
A further data set has as its system blood. The conditions noted are these: contacting blood with the substance; cited from earlier work.

T1 sequence (P06870 25-262): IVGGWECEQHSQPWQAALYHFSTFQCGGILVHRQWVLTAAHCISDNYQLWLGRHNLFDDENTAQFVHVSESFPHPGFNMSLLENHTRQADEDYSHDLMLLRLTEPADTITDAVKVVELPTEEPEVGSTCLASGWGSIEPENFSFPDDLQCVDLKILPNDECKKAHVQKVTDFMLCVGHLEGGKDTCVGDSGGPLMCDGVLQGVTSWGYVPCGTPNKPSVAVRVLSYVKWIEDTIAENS

As a reminder, the IC50 is the point on the concentration scale where inhibition reaches its midpoint. The term inhibition denotes the share of the control response that was lost under treatment. A low value points to a weak effect. What is called Cmax is the maximum level reached in the sampled fluid or tissue. In general, Tmax refers to the time at which the peak concentration occurs. In turn, `COCc1nn(Cc2ccc(Cn3ccccc3=O)cc2)cc1C(=O)NCc1c(F)ccc(OC)c1F` [N-[(2,6-difluoro-3-methoxyphenyl)methyl]-3-(methoxymethyl)-1-({4-[(2-oxopyridin-1-yl)methyl]phenyl}methyl)pyrazole-4-carboxamide] came in with an IC50 against Human KLK1 above 10000 nM. For the same molecule, at Human FXIa, the inhibition at 40 µM stood at 4%. Besides, at Human plasma kallikrein, the half-inhibitory concentration (IC50) came out at 4.5 nM. For the same molecule, in data set [1], the peak level (Cmax) was 2890 ng/mL and the Tmax was 1 h.
`Cl.NCC1CCC(C(=O)N[C@@H](Cc2ccccc2)C(=O)Nc2ccc(CC(=O)O)cc2)CC1` (stereo partly drawn) [PKSI-527]: the “Decrease in platelet count and fibrinogen level and increase in FDP level” value in data set [2] is “significantly suppressed”.
With Ecallantide, the “Contact activated induced coagulation” value in data set [3] is “delay contact activated induced coagulation”. The Anaphylactic reactions entry in data set [4] is reported as “risks of anaphylactic reactions”. Further, the “Activated clotting time (ACT)” value with blood is recorded as “increase in activated clotting time”.
